Where only a bound is given, the exact number is not on record here.

These results are taken from patent publication US20240150368A1, “ULK INHIBITORS AND METHODS OF USE THEREOF” (Deciphera Pharmaceuticals, LLC, priority 2022, published 2024).

The subject of one assay is ULK kinase substrate ATG13 (pS318-ATG13) in T24 cells. Kind of assay: pATG13 levels of mutant HRas T24 cells after treatment with ULK inhibitors in combination with trametinib (ELISA). Type of assay: cell-based, human. To be noted: in combination with trametinib 250 nM. The protocol: pATG13 Levels of Mutant HRas T24 Cells after Treatment with ULK Inhibitors in Combination with Trametinib
T24 human urinary bladder cancer cells (25000 cells/well) were added to a 96-well tissue-culture treated plate in 100 μL of pre-warmed DMEM medium supplemented with 10% characterized fetal bovine serum (Invitrogen, Carlsbad, CA), 100 units/mL penicillin G, and 100 μg/mL streptomycin and allowed to grow overnight at 37° C., 5% CO2, and 95% humidity. The following day, 100 μL of media containing trametinib or DMSO as a control was added to wells. The final concentration of trametinib in wells was 250 nM. A dose response of a test compound (0.5 μL per well) was added. DMSO (0.5 μL) was added to control wells. The plate was briefly shaken to mix wells and then incubated at 37° C. overnight. The next day, the media was aspirated and cells were washed with Dulbecco's Phosphate Buffered Saline (Gibco). Cells were lysed using MPER lysis buffer (Pierce, Rockford, IL) containing Halt Phosphatase and Protease Inhibitors (Pierce, Rockford, IL) and Phosphatase inhibitor cocktail 2 (Sigma, St. Louis, MO) at 4° C. for 10 min with shaking.
Cellular levels of phospho-Serine 318 ATG13 (pATG13) were measured via an ELISA method. Total ATG13 Antibody (Cell Signaling Cat #13273) was used to coat the wells. The plate was incubated at 4° C. overnight and washed with ELISA wash buffer (Biolegend Cat #421601). The wells were then blocked with assay diluent (Biolegend Cat #421203) for 1 h at rt. Plate wells were washed with ELISA wash buffer. Cell lysate was added to wells and incubated at rt for 2 h. Plate wells were washed with ELISA wash buffer. Biotinylated pS318-ATG13 antibody (Rockland Immunochemicals Cat #600-401-C49) was diluted in assay diluent and added to each well and incubated at rt for 1 h. Plate wells were washed with ELISA wash buffer. Streptavidin linked to horseradish peroxidase (Thermo Fisher Cat #21140) was diluted in assay diluent and added to each well and incubated at rt for 1 h. Plate wells were washed with ELISA wash buffer. High sensitivity TMB substrate (Biolegend Cat #421101) was added to each well and incubated at rt for 20 min. The reaction was stopped with 2.0N sulfuric acid. The plate was analyzed at on a plate reader measuring absorbance at 450 nm and 540 nm (background). Signal was calculated by first subtracting the background absorbance at 540 nm from the absorbance at 450 nm for each well. Next, the background corrected absorbance at 450 nm from blank wells was subtracted from test wells. Data was compared to control wells to determine % ATG13 phosphorylation. GraphPad Prism was used to calculate IC50 values.
One may read the IC50 as the concentration at which inhibition is half-maximal. As to `CC/C(Nc1cnn(C2CCN(C(C)C)CC2)c1)=C1/C(=O)Nc2ccc(C(=O)N(C)CC(F)(F)F)cc21` [Example 7], the IC50 is ≤ 100 nM.

With `CC/C(Nc1cnn(C2CCN(C(C)C)CC2)c1)=C1/C(=O)Nc2ccc(C(=O)NCC(F)(F)F)cc21` [Example 8], the IC50 is ≤ 100 nM.

As to `CC/C(Nc1cnn(C2CCN(C(C)C)CC2)c1)=C1/C(=O)Nc2ccc(C(=O)NCC(C)C)cc21` [Example 16], the half-maximal inhibitory concentration (IC50) was ≤ 100 nM.

With `CC/C(Nc1cnn(C2CCN(C(C)C)CC2)c1)=C1/C(=O)Nc2ccc(C(=O)N(C)CCOC)cc21` [Example 9], the IC50 lay within 100 to 300 nM.

In the case of `CC/C(Nc1cnn(C2CCN(C(C)C)CC2)c1)=C1/C(=O)Nc2ccc(C(=O)NCCOC)cc21` [Example 98], the IC50 was ≤ 100 nM.

The target in a further assay is T1, LRRK2 kinase (Homo sapiens, UniProt Q5S007).
T1 construct: (residues 970-2528; ID NO; 3); purchased Thermo Fisher
T1 sequence (Q5S007 with tags, fused parts or gaps): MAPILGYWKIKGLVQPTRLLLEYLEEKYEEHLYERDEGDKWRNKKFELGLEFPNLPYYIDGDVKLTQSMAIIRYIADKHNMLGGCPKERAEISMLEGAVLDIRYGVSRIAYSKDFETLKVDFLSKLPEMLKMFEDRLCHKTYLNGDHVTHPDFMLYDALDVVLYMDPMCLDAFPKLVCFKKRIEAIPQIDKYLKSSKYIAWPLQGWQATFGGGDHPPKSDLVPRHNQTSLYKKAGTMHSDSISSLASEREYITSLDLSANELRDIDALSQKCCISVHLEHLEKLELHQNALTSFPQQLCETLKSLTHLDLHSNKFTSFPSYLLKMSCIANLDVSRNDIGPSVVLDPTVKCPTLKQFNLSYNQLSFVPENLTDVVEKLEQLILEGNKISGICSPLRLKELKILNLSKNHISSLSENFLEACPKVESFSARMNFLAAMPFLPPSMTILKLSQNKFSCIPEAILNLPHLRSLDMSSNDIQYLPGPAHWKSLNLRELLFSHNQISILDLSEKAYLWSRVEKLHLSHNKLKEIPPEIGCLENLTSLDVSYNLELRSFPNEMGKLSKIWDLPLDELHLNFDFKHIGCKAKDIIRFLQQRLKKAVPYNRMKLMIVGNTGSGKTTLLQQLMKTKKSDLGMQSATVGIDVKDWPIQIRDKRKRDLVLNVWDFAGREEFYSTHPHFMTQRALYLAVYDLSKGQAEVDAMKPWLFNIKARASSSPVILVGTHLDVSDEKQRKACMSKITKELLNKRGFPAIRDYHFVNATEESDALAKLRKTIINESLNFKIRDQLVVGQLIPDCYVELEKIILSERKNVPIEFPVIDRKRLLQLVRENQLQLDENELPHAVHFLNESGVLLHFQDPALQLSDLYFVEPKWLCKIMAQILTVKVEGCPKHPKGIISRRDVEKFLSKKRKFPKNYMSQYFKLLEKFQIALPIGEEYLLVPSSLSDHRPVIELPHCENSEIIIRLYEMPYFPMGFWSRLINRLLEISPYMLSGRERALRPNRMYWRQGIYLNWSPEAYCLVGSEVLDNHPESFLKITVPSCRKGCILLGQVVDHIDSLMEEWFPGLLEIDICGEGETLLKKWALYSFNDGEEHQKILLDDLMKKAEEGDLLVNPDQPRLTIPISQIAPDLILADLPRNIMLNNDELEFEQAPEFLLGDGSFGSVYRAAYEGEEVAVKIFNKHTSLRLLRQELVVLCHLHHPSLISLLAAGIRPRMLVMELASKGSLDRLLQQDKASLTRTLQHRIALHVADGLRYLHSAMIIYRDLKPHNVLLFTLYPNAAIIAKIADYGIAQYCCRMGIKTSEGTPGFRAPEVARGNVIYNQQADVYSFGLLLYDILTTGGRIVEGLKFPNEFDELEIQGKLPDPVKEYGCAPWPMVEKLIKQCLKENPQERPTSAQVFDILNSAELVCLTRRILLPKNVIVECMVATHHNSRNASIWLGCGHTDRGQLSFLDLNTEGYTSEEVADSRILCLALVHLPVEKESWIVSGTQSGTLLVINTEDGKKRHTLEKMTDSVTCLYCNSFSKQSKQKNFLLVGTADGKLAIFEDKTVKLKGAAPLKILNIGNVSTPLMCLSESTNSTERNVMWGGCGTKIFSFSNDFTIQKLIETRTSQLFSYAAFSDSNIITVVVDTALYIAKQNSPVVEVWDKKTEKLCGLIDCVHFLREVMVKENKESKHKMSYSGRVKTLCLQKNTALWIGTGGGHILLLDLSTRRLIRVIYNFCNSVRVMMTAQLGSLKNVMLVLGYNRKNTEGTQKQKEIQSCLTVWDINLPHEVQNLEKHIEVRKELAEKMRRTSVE
Kind of assay: Biochemical assay for LRRK2 (coupled pyruvate kinase/lactate dehydrogenase assay). To be noted: 26.4 nM LRRK2, 1 mM ATP; read-out: LRRK2 (inhibition of LRRK2 kinase activity, IC50). The protocol: Biochemical Assay for LRRK2 (SEQ. ID NO. 3)
Activity of LRRK2 kinase was determined spectroscopically using a coupled pyruvate kinase/lactate dehydrogenase assay that continuously monitors the ATP hydrolysis-dependent oxidation of NADH (e.g., Schindler et al. Science (2000) 289: 1938-1942). Assays were conducted in 384-well plates (100 μL final volume) using 26.4 nM LRRK2 (Thermo Fisher), 0.1 mM peptide substrate (RLGRDKYKTLRQIRQ), 1.5 units pyruvate kinase, 2.1 units lactate dehydrogenase, 1 mM phosphoenol pyruvate, 0.28 mM NADH and 1 mM ATP in assay buffer (100 mM Tris, pH 7.5, 15 mM MgCl2, 0.5 mM DTT, 0.004% (w/v) BSA, and 0.004% Triton X-100). Inhibition of LRRK2 was measured by adding serial diluted test compound (final assay concentration of 1% DMSO). A decrease in absorption at 340 nm was monitored continuously for 6 h at 30° C. on a multi-mode microplate reader (BioTek). The reaction rate was calculated using the 2-3 h time frame. The reaction rate at each concentration of compound was converted to percent inhibition using controls (i.e., reaction with no test compound and reaction with a known inhibitor) and IC50 values were calculated using software routines in Prism (GraphPad software).
`CC/C(Nc1cnn(C(C)C)c1)=C1/C(=O)Nc2ccc(C(=O)NCC3CCC(C)(C)O3)cc21` (stereo not drawn) [Example 137]: the IC50 lay in the range of 100 to 300 nM.

For `CC/C(Nc1cn[nH]c1)=C1/C(=O)Nc2ccc(C(=O)NCC(F)(F)F)cc21` [Example 108], the IC50 is 100 to 300 nM.

Turning to `CC/C(Nc1cnn(C(C)C)c1)=C1/C(=O)Nc2ccc(C(=O)NCC3(F)CC3)cc21` [Example 152], the 50% inhibitory concentration (IC50) is ≤ 100 nM.

`CC/C(Nc1cnn(C)c1)=C1/C(=O)Nc2ccc(C(=O)NCC3(F)CC3)cc21` [Example 154]: the IC50 was ≤ 100 nM.

`CC/C(Nc1cnn(C2CCN(C(C)C)CC2)c1)=C1/C(=O)Nc2ccc(C(=O)NC[C@@H](C)OC)cc21` [Example 58]: the IC50 lay within 300 to 600 nM.

For `CC/C(Nc1cnc(N2CCN(C(C)C)CC2)cn1)=C1/C(=O)Nc2ccc(C(=O)NCC(F)(F)F)cc21` [Example 94], the IC50 was in the range of 100 to 300 nM.

In the case of `CC/C(Nc1cnn(C(C)C)c1)=C1/C(=O)Nc2ccc(C(=O)NCC(F)(F)F)cc21` [Example 4, (Z)-3-(1-((1-isopropyl-1H-pyrazol-4-yl)amino)propylidene)-2-oxo-N-(2,2,2-trifluoroethyl)indoline-5-carboxamide], the IC50 was ≤ 100 nM.

For `CC/C(Nc1cnn(C(C)C)c1)=C1/C(=O)Nc2ccc(C(=O)NC[C@H]3CCCO3)cc21` [Example 95], the IC50 was ≤ 100 nM.

Consider `CC/C(Nc1cnn(C2CCN(C(C)C)CC2)c1)=C1/C(=O)Nc2ccc(C(=O)NCCC#N)cc21` [Example 26], for which the IC50 was 100 to 300 nM.

In the case of `CC/C(Nc1ccc2nn(C(C)C)cc2c1)=C1/C(=O)Nc2ccc(C(=O)NCC(F)(F)F)cc21` [Example 142], the IC50 is ≤ 100 nM.

`CC/C(Nc1cnn(C(C)C)c1)=C1/C(=O)Nc2ccc(C(=O)NCC(C)C)cc21` [Example 130]: the IC50 is ≤ 100 nM.

Turning to `CC/C(Nc1cnn(C2CCN(C(C)C)CC2)c1)=C1/C(=O)Nc2ccc(C(=O)NCCC(F)(F)F)cc21` [Example 31], the IC50 was ≤ 100 nM.

Regarding `CC/C(Nc1cnn(C2CCNCC2)c1)=C1/C(=O)Nc2ccc(C(=O)NC[C@H]3CCCO3)cc21` [Example 52], the IC50 lay within 100 to 300 nM.

For the compound `CC/C(Nc1cnn(C2CCN(C(C)C)CC2)c1)=C1/C(=O)Nc2ccc(C(=O)NCC(F)(F)F)cc21` [Example 8], the IC50 lay in the range of 100 to 300 nM.

Turning to `CC/C(Nc1cnn(C(C)C)c1)=C1/C(=O)Nc2ccc(C(=O)N[C@H](C)C(F)(F)F)cc21` [Example 119], the IC50 is ≤ 100 nM.

As to `CC/C(Nc1cnn(CC)c1)=C1/C(=O)Nc2ccc(C(=O)NCC(F)(F)F)cc21` [Example 107], the IC50 is ≤ 100 nM.

`CC/C(Nc1cnn(C(C)C)c1)=C1/C(=O)Nc2ccc(C(=O)NCC3(C(F)(F)F)CC3)cc21` [Example 140]: the IC50 is ≤ 100 nM.

On to `CC/C(Nc1cnn(C2CCN(C3CCOCC3)CC2)c1)=C1/C(=O)Nc2ccc(C(=O)NCC(C)C)cc21` [Example 37], for which the IC50 lay within 100 to 300 nM.

With `CC/C(Nc1cnn(C)c1)=C1/C(=O)Nc2ccc(C(=O)NC[C@H]3CCCO3)cc21` [Example 55], the IC50 lay within 100 to 300 nM.

Consider `CC/C(Nc1cnn(C2CCOCC2)c1)=C1/C(=O)Nc2ccc(C(=O)NCC(C)(C)F)cc21` [Example 173], for which the IC50 was ≤ 100 nM.

With `CC/C(Nc1cnn(C2CCC2)c1)=C1/C(=O)Nc2ccc(C(=O)NCC(F)(F)F)cc21` [Example 117], the IC50 is ≤ 100 nM.

As to `CC/C(Nc1cnn([C@H]2CCOC2)c1)=C1/C(=O)Nc2ccc(C(=O)NCC(F)(F)F)cc21` [Example 104], the IC50 is ≤ 100 nM.

Regarding `CC/C(Nc1cnn(C(C)C)c1)=C1/C(=O)Nc2ccc(C(=O)N(C)CC(F)(F)F)cc21` [Example 125], the IC50 is ≤ 100 nM.

On to `CC/C(Nc1cnn(C(F)F)c1)=C1/C(=O)Nc2ccc(C(=O)NCC(F)(F)F)cc21` [Example 114], for which the IC50 is ≤ 100 nM.

Consider `CC/C(Nc1cnn(C(C)C)c1)=C1/C(=O)Nc2ccc(C(=O)NCC(F)F)cc21` [Example 112], for which the IC50 was ≤ 100 nM.

With `CC/C(Nc1cnn(C2CC2)c1)=C1/C(=O)Nc2ccc(C(=O)NCC(F)(F)F)cc21` [Example 116], the IC50 is ≤ 100 nM.

Take `CC/C(Nc1ccc(N2CCN(C(C)C)CC2)cc1)=C1/C(=O)Nc2ccc(C(=O)NC[C@H]3CCCO3)cc21` [Example 47]: the IC50 is 100 to 300 nM.

As for `CC/C(Nc1cnn(CC(F)F)c1)=C1/C(=O)Nc2ccc(C(=O)NCC(C)(C)F)cc21` [Example 161], the IC50 lay in the range of 100 to 300 nM.

As for `CC/C(Nc1cnn(C2CCN(C(C)C)CC2)c1)=C1/C(=O)Nc2ccc(C(C)=O)cc21` [Example 123], the IC50 lay within 100 to 300 nM.

On to `CC/C(Nc1cnn(C2CN(C)C2)c1)=C1/C(=O)Nc2ccc(C(=O)NC[C@H]3CCCO3)cc21` [Example 54], for which the IC50 fell in the range of 300 to 600 nM.

Consider `CC/C(Nc1ccc(N2CCN(C(C)C)CC2)cn1)=C1/C(=O)Nc2ccc(C(=O)NC[C@H]3CCCO3)cc21` [Example 93], for which the IC50 is ≤ 100 nM.

`CC/C(Nc1cnn(C(C)C)c1)=C1/C(=O)Nc2ccc(C(=O)NCCOC(F)(F)F)cc21` [Example 136]: the IC50 fell in the range of 300 to 600 nM.

As for `CC/C(Nc1cnn(C(C)C)c1)=C1/C(=O)Nc2ccc(C(=O)NCC(C)(C)F)cc21` [Example 135], the IC50 lay in the range of 100 to 300 nM.

On to `CC/C(Nc1cnn(C2COC2)c1)=C1/C(=O)Nc2ccc(C(=O)NCC(F)(F)F)cc21` [Example 118], for which the IC50 was ≤ 100 nM.

In the case of `CC/C(Nc1cnn(C(F)(F)F)c1)=C1/C(=O)Nc2ccc(C(=O)NCC(F)(F)F)cc21` [Example 113], the IC50 is 100 to 300 nM.

`CC/C(Nc1cnn(C2CCN(C(C)C)CC2)c1)=C1/C(=O)Nc2ccc(C(=O)NCCOC)cc21` [Example 98]: the IC50 lay within 100 to 300 nM.

For the compound `CC/C(Nc1ccc(N2CC3(CN(C)C3)C2)cc1)=C1/C(=O)Nc2ccc(C(=O)NCC(F)(F)F)cc21` [Example 62], the IC50 is ≤ 100 nM.
